Results published in ChEMBL document CHEMBL1201862, “PubChem BioAssay data set” (2004).
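Assay format: 96-well plates, 48-hour exposure. GI50 = concentration required for 50% inhibition of growth.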 Calls of active or inactive are those of the source. No stated cut-off is given here; in the data, active = GI50 up to about 1.1 µM and inactive = higher.

Legend:
Experiment in all cases: NCI anticancer screen, dose series, 48 h
EKVX = test system: EKVX
IGROV-1 = test system: IGROV-1
NCI-H226 = test system: NCI-H226
ACHN = test system: ACHN
HL-60 = test system: HL-60
RPMI-8226 = test system: RPMI-8226
MDA-N = test system: MDA-N
SW-620 = test system: SW-620
CAKI-1 = test system: CAKI-1
MOLT-4 = test system: MOLT-4
Hs-578T = test system: Hs-578T
M14 = test system: M14
UO-31 = test system: UO-31
UACC-257 = test system: UACC-257
TK-10 = test system: TK-10
OVCAR-8 = test system: OVCAR-8
MDA-MB-435 = test system: MDA-MB-435
SR = test system: SR
UACC-62 = test system: UACC-62
BT-549 = test system: BT-549

| SMILES | GI50 (EKVX) | GI50 (IGROV-1) | GI50 (NCI-H226) | GI50 (ACHN) | GI50 (HL-60) | GI50 (RPMI-8226) | GI50 (MDA-N) | GI50 (SW-620) | GI50 (CAKI-1) | GI50 (MOLT-4) | GI50 (Hs-578T) | GI50 (M14) | GI50 (UO-31) | GI50 (UACC-257) | GI50 (TK-10) | GI50 (OVCAR-8) | GI50 (MDA-MB-435) | GI50 (SR) | GI50 (UACC-62) | GI50 (BT-549) |
| --- | --- | --- | --- | --- | --- | --- | --- | --- | --- | --- | --- | --- | --- | --- | --- | --- | --- | --- | --- | --- |
| CCOC(=O)Cc1csc(NC(NC(=O)OCC)(C(=O)OCC)C(F)(F)F)n1 (centres undefined) | > 100 µM (inactive) | > 100 µM (inactive) | > 100 µM (inactive) | > 100 µM (inactive) | > 100 µM (inactive) | > 100 µM (inactive) | > 100 µM (inactive) | > 100 µM (inactive) | > 100 µM (inactive) | > 100 µM (inactive) | > 100 µM (inactive) | > 100 µM (inactive) | > 100 µM (inactive) | > 100 µM (inactive) | > 100 µM (inactive) | > 100 µM (inactive) | > 100 µM (inactive) | > 100 µM (inactive) |  |  |
| NS(=O)(=O)c1ccc(NC(=O)c2cccc3c(=O)c4ccccc4[nH]c23)cc1 | > 100 µM (inactive) | 78.5 µM (inactive) | 23.4 µM (inactive) | > 100 µM (inactive) | 31.8 µM (inactive) | 28.4 µM (inactive) |  | 78.9 µM (inactive) | > 100 µM (inactive) | 18.2 µM (inactive) |  | > 100 µM (inactive) | 18.6 µM (inactive) | > 100 µM (inactive) | 89.1 µM (inactive) | > 100 µM (inactive) |  | 22 µM (inactive) | 41.8 µM (inactive) |  |
| Cc1nc(Nc2ccc(F)cc2)c2sc(=S)n(-c3ccc(F)cc3)c2n1 | 13.1 µM (inactive) | 10.6 µM (inactive) | 16.1 µM (inactive) | 13.7 µM (inactive) | 23.6 µM (inactive) | 5.01 µM (inactive) |  | 9.77 µM (inactive) | 18.3 µM (inactive) |  | 14.5 µM (inactive) | 2.94 µM (inactive) | 16.5 µM (inactive) | 13.4 µM (inactive) | 14.5 µM (inactive) | 15.6 µM (inactive) | 10.8 µM (inactive) | 3.27 µM (inactive) | 16.1 µM (inactive) | 13.3 µM (inactive) |
| CC(NC1=NCCO1)c1ccco1 (centres undefined) | > 100 µM (inactive) | > 100 µM (inactive) | > 100 µM (inactive) | > 100 µM (inactive) | > 100 µM (inactive) | > 100 µM (inactive) | 95.9 µM (inactive) | > 100 µM (inactive) | > 100 µM (inactive) | > 100 µM (inactive) | > 100 µM (inactive) | > 100 µM (inactive) | > 100 µM (inactive) | > 100 µM (inactive) | > 100 µM (inactive) | > 100 µM (inactive) | > 100 µM (inactive) | 75.9 µM (inactive) | > 100 µM (inactive) |  |
| CCOC(=O)Cc1[nH]c(C(=O)c2ccccc2)cc1C(=O)c1ccccc1 | > 100 µM (inactive) | > 10 µM (inactive) | 23.3 µM (inactive) | > 10 µM (inactive) | 33.1 µM (inactive) | > 10 µM (inactive) |  | > 100 µM (inactive) |  | 14.8 µM (inactive) | > 100 µM (inactive) | 88.1 µM (inactive) | > 10 µM (inactive) | > 10 µM (inactive) | 36 µM (inactive) | > 10 µM (inactive) | 13.8 µM (inactive) | 38.4 µM (inactive) | > 100 µM (inactive) | 20.6 µM (inactive) |
| C/C(CC(O)(C(F)(F)F)C(F)(F)F)=N\NC(N)=O | > 10 µM (inactive) | > 10 µM (inactive) | > 10 µM (inactive) | > 10 µM (inactive) | > 10 µM (inactive) | > 10 µM (inactive) | > 10 µM (inactive) | > 10 µM (inactive) | > 10 µM (inactive) | > 10 µM (inactive) | > 10 µM (inactive) | > 10 µM (inactive) | > 10 µM (inactive) | > 10 µM (inactive) | > 10 µM (inactive) | > 10 µM (inactive) | > 10 µM (inactive) | > 10 µM (inactive) | > 10 µM (inactive) |  |
| N#CC1(C#N)C2C=CC(C3CC=CC32)C1(C#N)C#N (centres undefined) | 12.3 µM (inactive) | 9.33 µM (inactive) | > 50 µM (inactive) | 5.12 µM (inactive) | 1.12 µM (inactive) | 2.35 µM (inactive) |  | 2.13 µM (inactive) | 2.08 µM (inactive) | 1.48 µM (inactive) | 17.9 µM (inactive) | 2.01 µM (inactive) | 2.17 µM (inactive) | 12.7 µM (inactive) | 2 µM (inactive) | 4.72 µM (inactive) | 7.16 µM (inactive) | 2.29 µM (inactive) | 8.77 µM (inactive) |  |
| Cc1ccc(NC(=O)C(=O)C2NC(=S)NC2=O)c([N+](=O)[O-])c1 (centres undefined) | 57.3 µM (inactive) | > 100 µM (inactive) | > 100 µM (inactive) | > 100 µM (inactive) | > 100 µM (inactive) | > 100 µM (inactive) |  | > 100 µM (inactive) | > 100 µM (inactive) | > 100 µM (inactive) |  | > 100 µM (inactive) | > 100 µM (inactive) | > 100 µM (inactive) | > 100 µM (inactive) | > 100 µM (inactive) |  | > 100 µM (inactive) | > 100 µM (inactive) |  |
| CC1=NN(c2nc(N)nc(/C(C#N)=C\C3COc4ccccc4C3=O)n2)C(C)(C)C1 (centres undefined) | 22.5 µM (inactive) | 32.7 µM (inactive) | 22.8 µM (inactive) | 23.6 µM (inactive) | 0.0404 µM (active) | 17.7 µM (inactive) | 18.9 µM (inactive) | 30.7 µM (inactive) | 23.6 µM (inactive) | 21.8 µM (inactive) | 24 µM (inactive) | 23.7 µM (inactive) | 18.9 µM (inactive) | 51.4 µM (inactive) | 27.6 µM (inactive) | 25.6 µM (inactive) | 32.1 µM (inactive) | 17.6 µM (inactive) |  |  |
| CCN(CC)CCC(=O)Nc1ccc2c(c1)C(=O)c1ccc(NC(=O)CCN(CC)CC)cc1C2=O | 3.25 µM (inactive) | 4.06 µM (inactive) | 0.308 µM (active) | 4.07 µM (inactive) | 4.23 µM (inactive) | 4.17 µM (inactive) |  | 2.24 µM (inactive) | 4.43 µM (inactive) | 2.07 µM (inactive) |  | 13.8 µM (inactive) | 84.1 µM (inactive) | 14.8 µM (inactive) | 5.01 µM (inactive) | 4.16 µM (inactive) |  | 3.37 µM (inactive) | 10.4 µM (inactive) |  |
| O=[N+]([O-])c1nccn1COCCI | > 100 µM (inactive) | > 100 µM (inactive) | > 100 µM (inactive) | > 100 µM (inactive) | > 100 µM (inactive) | > 100 µM (inactive) |  | > 100 µM (inactive) | > 100 µM (inactive) | > 100 µM (inactive) |  | > 100 µM (inactive) | > 100 µM (inactive) | > 100 µM (inactive) | > 100 µM (inactive) | > 100 µM (inactive) |  | > 100 µM (inactive) | > 100 µM (inactive) |  |
| COC(=O)/C=C/c1ccccc1N=[S@](C)(=O)c1ccc(C)cc1 | 37.4 µM (inactive) | 18 µM (inactive) | 36.1 µM (inactive) | 32.6 µM (inactive) | 2.32 µM (inactive) | 18 µM (inactive) |  | 8.89 µM (inactive) | 15 µM (inactive) | 19.8 µM (inactive) | 18.7 µM (inactive) | 12.6 µM (inactive) | 50.4 µM (inactive) | 8.85 µM (inactive) | 22.4 µM (inactive) | 28.5 µM (inactive) | 3.54 µM (inactive) | 3.49 µM (inactive) | 8.24 µM (inactive) | 33 µM (inactive) |
| CCCCC1CCCCCCc2[nH]c(/C=C3\N=C(c4ccc[nH]4)C=C3OC)cc21 (centres undefined) | < 0.0167 µM (active) | < 0.0188 µM (active) | 0.205 µM (active) | < 0.0111 µM (active) | < 0.01 µM (active) | < 0.01 µM (active) | < 0.0139 µM (active) | < 0.01 µM (active) | 0.0502 µM (active) | < 0.01 µM (active) | 0.0331 µM (active) | 0.0136 µM (active) | 0.0194 µM (active) | 0.13 µM (active) | 0.338 µM (active) | < 0.0223 µM (active) | < 0.01 µM (active) | < 0.01 µM (active) | < 0.0127 µM (active) |  |
| SC1=C2CCCCCC2=NC2(CCCCCC2)S1 | 5.62 µM (inactive) | 44.1 µM (inactive) | 12.4 µM (inactive) | 13 µM (inactive) | 12.1 µM (inactive) | 18.5 µM (inactive) | 33.4 µM (inactive) | 32.3 µM (inactive) | 31.5 µM (inactive) | 19 µM (inactive) | 11.6 µM (inactive) | 35.2 µM (inactive) | 11.6 µM (inactive) | 11 µM (inactive) | 24.7 µM (inactive) | 28.3 µM (inactive) | 30.5 µM (inactive) | 15.6 µM (inactive) | 26.8 µM (inactive) |  |
| C=C1C(=O)C23C(O)C1CC[C@H]2C12CCCC(C)(COC(C)=O)[C@H]1[C@H](O)[C@]3(O)OC2 (some centres undefined) | 4.01 µM (inactive) | 2.08 µM (inactive) | 2.44 µM (inactive) | 1.51 µM (inactive) | 0.279 µM (active) | 0.318 µM (active) |  | 0.519 µM (active) | 1.16 µM (inactive) | 0.138 µM (active) | 2.77 µM (inactive) | 1.1 µM (active) | 1.77 µM (inactive) | 1.14 µM (inactive) | 1.63 µM (inactive) | 1.7 µM (inactive) |  |  | 1.58 µM (inactive) | 1.48 µM (inactive) |
| NCCCCN(CCCN)C(=O)c1ccccc1 | > 100 µM (inactive) | > 100 µM (inactive) | > 100 µM (inactive) | > 100 µM (inactive) | > 100 µM (inactive) | > 100 µM (inactive) |  | > 100 µM (inactive) | > 100 µM (inactive) | > 100 µM (inactive) | > 100 µM (inactive) | > 100 µM (inactive) | > 100 µM (inactive) | > 100 µM (inactive) | > 100 µM (inactive) | > 100 µM (inactive) | > 100 µM (inactive) |  | > 100 µM (inactive) | > 100 µM (inactive) |
